Target: KRAS G12C (Homo sapiens, UniProt P01116, G12C)
Assay: KRAS G12C GDP-GTP exchange assay (bodipy-GDP for GppNHp, with SOS1)
Format: biochemical
Set-up: G12C_exchange (KRAS_G12C exchange assay IC50): scale not given here
Settings: 2.5 nM bodipy-loaded KRAS G12C, 2 hours pre-incubation with inhibitor, 2 hours after GppNHp-SOS1
Procedure: The inhibitor potency of the exemplified compounds was determined in a fluorescence based guanine nucleotide exchange assay, which measures the exchange of bodipy-GDP (fluorescently labeled GDP) for GppNHp (Non-hydrolyzable GTP analog) to generate the active state of KRAS in the presence of SOS1 (guanine nucleotide exchange factor). Inhibitors were serially diluted in DMSO and a volume of 0.1 μL was transferred to the wells of a black low volume 384-well plate. 5 μL/well volume of bodipy-loaded KRAS G12C diluted to 5 nM in assay buffer (25 mM Hepes pH 7.5, 50 mM NaCl, 10 mM MgCl2 and 0.01% Brij-35) was added to the plate and pre-incubated with inhibitor for 2 hours at ambient temperature. Appropriate controls (enzyme with no inhibitor or with a G12C inhibitor (AMG-510)) were included on the plate. The exchange was initiated by the addition of a 5 μL/well volume containing 1 mM GppNHp and 300 nM SOS1 in assay buffer. The 10 μL/well reaction concentration of the bodipy-loaded KRAS G12C, GppNHp, and SOS1 were 2.5 nM, 500 uM, and 150 nM, respectively. The reaction plates were incubated at ambient temperature for 2 hours, a time estimated for complete GDP-GTP exchange in the absence of inhibitor. For the KRAS G12D and G12V mutants, similar guanine nucleotide exchange assays were used with 2.5 nM as final concentration for the bodipy loaded KRAS proteins and with 4 hours and 3 hours incubation after adding GppNHp-SOS1 mixture for G12D and G12V respectively. A cyclic peptide described to selectively bind G12D mutant (Sakamoto et al., BBRC 484.3 (2017), 605-611) or internal compounds with confirmed binding were used as positive controls in the assay plates. Fluorescence intensities were measured on a PheraStar plate reader instrument (BMG Labtech) with excitation at 485 nm and emission at 520 nm.
Either GraphPad prism or XLfit was used to analyze the data. The IC50 values were derived by fitting the data to a four parameter logistic equation producing a sigmoidal dose-response curve with a variable Hill coefficient. Prism equation: Y=Bottom+(Top−Bottom)/(1+10^((Log IC50−X)*Hill slope)); XLfit equation: Y=(A+((B−A)/(1+((X/C)^D)))) where X is the logarithm of inhibitor concentration and Y is the response.

Sequence of KRAS G12C (P01116 1-188 isoform P01116-2 G12C): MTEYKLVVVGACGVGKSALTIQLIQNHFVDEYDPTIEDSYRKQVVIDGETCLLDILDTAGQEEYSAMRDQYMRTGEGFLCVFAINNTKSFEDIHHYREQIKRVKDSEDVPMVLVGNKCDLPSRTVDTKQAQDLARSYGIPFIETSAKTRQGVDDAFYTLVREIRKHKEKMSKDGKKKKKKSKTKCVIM

Question: Cc1c(Cl)cc2[nH]ncc2c1-c1c(Cl)cc2c(nc(N3CC(N(C)C)C3)c3cnn([C@H]4CCN(C(=O)/C=C/CN(C)C)[C@H](CC#N)C4)c32)c1F (single isomer, unassigned) [Example 4b] was tested. Which “G12C_exchange (KRAS_G12C exchange assay IC50)” value (shortened to “G12C_exchange”) did it give?
Answer: ††

Question: Which “G12C_exchange” value does the source give for COC/C=C/C(=O)N1CC[C@H](n2ncc3c(N4CC(N(C)C)C4)nc4c(F)c(-c5c(C)c(Cl)cc6[nH]ncc56)c(Cl)cc4c32)C[C@H]1CC#N (single isomer, unassigned) [Example 5b] here?
Answer: ††

Question: With Cc1c(Cl)cc2[nH]ncc2c1-c1c(Cl)cc2c(nc(N3CC(N(C)C)C3)c3cnn([C@H]4CCN(C(=O)/C=C/CF)[C@H](CC#N)C4)c32)c1F (single isomer, unassigned) [Example 6b] as the molecule, how does the “G12C_exchange” value read?
Answer: ††

Question: How did the “G12C_exchange” value turn out when Cc1c(Cl)cc2[nH]ncc2c1-c1c(Cl)cc2c(nc(N3CC(N(C)C)C3)c3cnn([C@H]4CCN(C(=O)/C=C/C(F)F)[C@H](CC#N)C4)c32)c1F (single isomer, unassigned) [Example 7b] was run?
Answer: ††

Question: With C=C(F)C(=O)N1CC[C@H](n2ncc3c(N4CC(N(C)C)C4)nc4c(F)c(-c5c(C)c(Cl)cc6[nH]ncc56)c(Cl)cc4c32)C[C@H]1CC#N (single isomer, unassigned) [Example 8b] as the molecule, how does the “G12C_exchange” value read?
Answer: ††

Question: How did the “G12C_exchange” value turn out when CC#CC(=O)N1CC[C@H](n2ncc3c(N4CC(N(C)C)C4)nc4c(F)c(-c5c(C)c(Cl)cc6[nH]ncc56)c(Cl)cc4c32)C[C@H]1CC#N (single isomer, unassigned) [Example 9b] was run?
Answer: ††

Question: How did the “G12C_exchange” value turn out when Cc1c(Cl)cc2[nH]ncc2c1-c1c(Cl)cc2c(nc(N3CC(C)(N(C)C)C3)c3cnn([C@H]4CCN(C(=O)/C=C/CN(C)C)[C@H](CC#N)C4)c32)c1F (single isomer, unassigned) [Example 10b] was run?
Answer: ††

Question: How did the “G12C_exchange” value turn out when CC#CC(=O)N1CC[C@H](n2ncc3c(N4CC(C)(N(C)C)C4)nc4c(F)c(-c5c(C)c(Cl)cc6[nH]ncc56)c(Cl)cc4c32)C[C@H]1CC#N (single isomer, unassigned) [Example 11b] was run?
Answer: ††

Question: For COC/C=C/C(=O)N1CC[C@H](n2ncc3c(N4CC(C)(N(C)C)C4)nc4c(F)c(-c5c(C)c(Cl)cc6[nH]ncc56)c(Cl)cc4c32)C[C@H]1CC#N (single isomer, unassigned) [Example 12b], which “G12C_exchange” value is on record?
Answer: ††

Question: With Cc1c(Cl)cc2[nH]ncc2c1-c1c(Cl)cc2c(nc(N3CC(C)(N(C)C)C3)c3cnn([C@H]4CCN(C(=O)/C=C/CF)[C@H](CC#N)C4)c32)c1F (single isomer, unassigned) [Example 13b] as the molecule, how does the “G12C_exchange” value read?
Answer: ††

Question: Cc1c(Cl)cc2[nH]ncc2c1-c1c(Cl)cc2c(nc(N3CC(C)(N(C)C)C3)c3cnn([C@H]4CCN(C(=O)/C=C/C(F)F)[C@H](CC#N)C4)c32)c1F (single isomer, unassigned) [Example 14b] was tested. Which “G12C_exchange” value did it give?
Answer: ††

Question: How did the “G12C_exchange” value turn out when C=C(F)C(=O)N1CC[C@H](n2ncc3c(N4CC(C)(N(C)C)C4)nc4c(F)c(-c5c(C)c(Cl)cc6[nH]ncc56)c(Cl)cc4c32)C[C@H]1CC#N (single isomer, unassigned) [Example 15b] was run?
Answer: ††

Question: C=CC(=O)N1CC[C@H](n2ncc3c(N4CC(C)(N(C)C)C4)nc4c(F)c(-c5c(C)c(Cl)cc6[nH]ncc56)c(Cl)cc4c32)C[C@H]1CC#N (single isomer, unassigned) [Example 16b] was tested. Which “G12C_exchange” value did it give?
Answer: ††

Question: CC#CC(=O)N1CC[C@H](n2ncc3c(OC[C@@H]4CCCN4C)nc4c(F)c(-c5c(C)c(Cl)cc6[nH]ncc56)c(Cl)cc4c32)C[C@H]1CC#N (single isomer, unassigned) [Example 18b] was tested. Which “G12C_exchange” value did it give?
Answer: ††

Question: How did the “G12C_exchange” value turn out when COC/C=C/C(=O)N1CC[C@H](n2ncc3c(OC[C@@H]4CCCN4C)nc4c(F)c(-c5c(C)c(Cl)cc6[nH]ncc56)c(Cl)cc4c32)C[C@H]1CC#N (single isomer, unassigned) [Example 19b] was run?
Answer: ††

— patent US20210355121A1, “FUSED TRICYCLIC KRAS INHIBITORS” (Incyte Corporation, priority 2020, published 2021)
